Source: patent US20240368668A1, “SUBSTRATES AND BIOMARKERS OF ADAMTS7” (The Broad Institute, Inc., priority 2021, published 2024)
Square brackets hold non-standard residues; d marks the D form. Ends that are not written are not given here.

test system: mouse ADAMTS7; experiment: TMT10 TAILS N-terminomics, HUVEC experiment (process replicates, trypsin/AspN digest); assay type: cell-based, human; conditions: HUVEC TAILS HC; log fold change of N-terminal peptide, Ad-mADAMTS7 WT over EQ
Procedure, shortened: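 Full-length mouse ADAMTS7 (WT or E373Q mutant, C-terminal 3xFLAG) or luciferase was transduced via adenovirus, 50 MOI, into HCA-SMC (SMC1, SMC2) or HUVEC. SMC1: pooled media, technical triplicates 400 ug; SMC2: process triplicates 300 ug; HUVEC: process triplicates 200 ug, bFGF2 10 ng/ml.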

Row | Substance | logFC.mWT.over.mEQ
1 | FN1_1780 (LQGLRPGSEYTVSVVALH; listed as Homo sapiens) | 2.27
2 | FSTL1_290 (LQKHQETA; listed as Homo sapiens) | 2.57
3 | EFEMP1_125_ (VAGPEMQTGR; listed as Homo sapiens) | 2.45
4 | ERAP2_718 (ISENLKR; listed as Homo sapiens) | 4.41
5 | LOX_125 (FQAGYSTSR; listed as Homo sapiens) | 3.58
6 | FN1_1144 (TPGVEYVYTIQVLR; listed as Homo sapiens) | 1.62
7 | FN1_1805 (LIGTQSTAIPAPT; listed as Homo sapiens) | 1.42
8 | FN1_607 (SSSGPVEVFIT; listed as Homo sapiens) | 2.71
9 | FN1_34 ([code q]QMVQPQSPVAVSQSKPGCY; not fully specified (residue 3); listed as Homo sapiens) | 1.43
10 | EWSR1_87 (YSQPVQGYGTGAY; listed as Homo sapiens) | 1.15
11 | FN1_35 ([code q]MVQPQSPVAVSQSKPGCY; not fully specified (residue 2); listed as Homo sapiens) | 2.58
12 | FN1_293 (VYQPQPHPQPPPYGHCVT; listed as Homo sapiens) | 1.24
13 | ECM1_108 (QEAVPLQK; listed as Homo sapiens) | 2.12
14 | FN1_2113 (FVTHPGY; listed as Homo sapiens) | 1.67

same assay, conditions: HUVEC experiment; log fold change, mouse ADAMTS7 WT over EQ

Row | Substance | HUVEC logFC.mWT.over.mEQ
15 | FN1_607 (SSSGPVEVFIT; listed as Homo sapiens) | 2.04
